Reference: article PMC12188386, “Selective CBP/EP300 Bromodomain Inhibitors: Novel Epigenetic Tools to Counter TNF-α-Driven Inflammation” (JACS Au, 2025)
Where two headings read alike, the source gives them in different places.

Key:
[1] = target: CBP-BRD; design: method as in Pegg et al., 2017; Brooks et al., 2017; conditions: SPR, ref Pegg et al., 2017, Brooks et al., read-out: Affinity to CBP-BRD, Kd; cited from earlier work
[2] = test system: BRD4(1)-BRD; conditions: cited from earlier work
[3] = kinetic solubility; format: physicochemical; conditions: PBS pH 7.4, 37°C, 90 min; ± st. dev. between technical replicates
Description: Starting from an initial concentration of 100, 50 or 20 µM, a 2-fold serial dilution of the compound (10 mM stock in DMSO) was prepared in a mixture of ACN/Buffer (PBS, pH = 7.4) 2:8, with 1% DMSO. 350 µL was transferred to a 96-Well Plate (Greiner, UV-star) then UV absorption (240-400 nm, 10 nm steps) was measured. The absorption was blank-corrected and plotted against concentration. The wavelength (λ) providing the best fitting straight line […]
(§1) was used as the calibration curve. To obtain saturated solutions of the compounds of interest, in duplicates 4.4 µL of a 10 or 5 mM stock in DMSO was added to 436 µL Buffer (PBS, pH = 7.4), to give a final concentration of 100 or 50 µM. Samples were incubated on a shaker (500 rpm) at 37°C for 90 minutes and then filtered (Millex-GV 13 mm, 0.22 µm). 304 µL of the filtrate was mixed with 76 µL of acetonitrile on a dilution plate, from which 350 µL was transferred to a UV-plate and UV-absorption was read using a SpectraMax M5 (Molecular devices). The absorbance was blank-corrected and compared to the calibration curve to […]
(§2) solubility. The wavelengths used for the calibration curve are available in Table S4.
(§3) Based on the known density of 12.5 % CAPTISOL® solution (d = 1.05755 g/mL at 25 °C), the precise weight of the resulting solution and so the required amount of water by weight was calculated. The water was added portion wise with agitation, vortexing and sonication cycles in between additions. The saturated solutions were then filtered (Millex-GV 13 mm, 0.22 µm). In duplicates, aliquots of the filtrates were taken and diluted with blank 12.5 % CAPTISOL® water solution in either a 1:14 (higher sol. compounds) or 1:7 (lower sol. compounds) ratio, 350 µL was transferred to a 96-Well Plate (Greiner, UV-star) then UV absorption (240-400 nm, 10 nm steps) was measured using a SpectraMax M5 (Molecular devices). The absorption was blank-corrected, compared to the calibration curve obtained during the solubility measurement method above and finally corrected for the dilution ratio to obtain the compound concentration in the saturated 12.5 % CAPTISOL® solution. The calculated concentrations are available in Table S4.
(§4) BROMOscan™ assays (provided by Eurofins DiscoverX, US)1,2 […]
coli host derived from the BL21 strain. E. coli were grown to log-phase and infected with T7 phage from a frozen stock (multiplicity of infection = 0.4) and incubated with shaking at 32°C until lysis (90-150 minutes). The lysates were centrifuged (5,000 x g) and filtered (0.2µm) to remove cell debris. Streptavidin-coated magnetic beads were treated with biotinylated small molecule or acetylated peptide ligands for 30 minutes at room temperature to generate affinity resins for bromodomain assays. The liganded beads were blocked with excess biotin and washed with blocking buffer (SeaBlock (Pierce), 1 % BSA, 0.05 % Tween 20, 1 mM DTT) to remove unbound ligand and to reduce non specific phage binding. Binding reactions were assembled by combining bromodomains, liganded affinity beads, and test compounds (see […]
Sodium azide, 7.4 mM DTT). All reactions were performed in polypropylene 384-well plates in a final volume of 0.02 mL. The assay plates were incubated at room temperature with […]
20). The beads were then resuspended in elution buffer (1x PBS, 0.05% Tween 20, 2 µM non-

[4] = test system: TNF-α-induced cytokine expression in THP-1 cells; assay: cytokine mRNA expression by RT-qPCR; format: cell-based, human; conditions: 1 h co-treatment of THP-1 cells with 10 ng/mL TNF-α and 1 μM compound
Description: For cytokine expression determination, 5x10^5 THP-1 cells were plated on 12 well plates the day prior to treatment with 10 ng/mL recombinant human TNF -α (aa 77-233) protein (R&D systems, 10291 -TA) and compounds at a final concentration of 0.1 % DMSO. In all cases, total
RNA was extracted using the NucleoSpin® RNA kit (Machery -Nagel) and used for cDNA synthesis with the High -Capacity cDNA Reverse Transcription kit (Applied Biosystems). RT-qPCR reactions were performed using PowerSYBR™ green PCR Master Mix (Applied Biosystems) and a LightCycler® 480 (Roche). cDNA was denatured for 10 min at 95 °C followed by 40 cycles of 15 s at 95 °C and 1 min at 60 °C. Cp values were determined as the maximum of the second derivative and target gene expression was compared to that of hprt from the same sample using the 2-ΔCp method. Gene expression was then normalized to the average of the control samples from the same day, or all biological replicates. […]

[5] = test system: TNF-α-induced IL-8 secretion from THP-1 cells; assay: cytokine protein measurement (LEGENDPlex); format: cell-based, human; conditions: 10 ng/mL TNF-α, 1 μM compound
Description: For cytokine expression determination, 5x10^5 THP-1 cells were plated on 12 well plates the day prior to treatment with 10 ng/mL recombinant human TNF -α (aa 77-233) protein (R&D systems, 10291 -TA) and compounds at a final concentration of 0.1 % DMSO. In all cases, total […]
Cytokine protein measurements
THP-1 cells were plated and treated as for the quantitative RT -PCR, then the cell culture medium was harvested by pelleting the cells (300g, 3min) and taking the supernatant .
Cytokine protein concentrations were determined using the LEGENDPlexTM Human Inflammation Panel 1 (BioLegend) assay with 25 µL of culture medium following the manufacturer’s instructi ns. amp es were ana zed f w c t metr n an rtessa Biosciences), and data was analyzed using LEGENDPlex software (BioLegend).

[6] = test system: MRC5 cells; assay: viability assay (resazurin); format: cell-based; conditions: three-day treatment, concentration resulting in 70 % viability
Description: MRC5 (2x10^3 cells/well) or THP-1 (8x10^3 cells/well) cells were plated onto 96 well plates and treated with compounds at a final DMSO concentration of 0.5 % (MRC5) or 0.1 % (THP-1).
After 3 days of treatment, resazurin (Acros Organics) was added at a final concentration of 86 μ and incu ated for 2h15 (MRC5) or 3 h (THP-1). Fluorescence (ex. 560 nm, em. 590 nm) was read using a SpectraMax M5 (Molecular devices). GI30 values were calculated as the compound concentration resulting in 70 % viability compared to DMSO treated controls using a nonlinear regression fit using GraphPad Prism with the following equation: (Y=Bottom + (100-Bottom)/(1+(IC50/X)^HillSlope)). […]
After 1.5 h, mice were injected with 10 µL of the prepared CAPTISOL […]
foodpad and also intraperitoneally (for i.p. injection, the 10 µL of CAPTISOL solution was diluted to a final volume of 100 µL using PBS). Organs were collected 5 h after TNF-α […]
LEGENDPlexTM assays (Mouse Pro-inflammatory Chemokine Panel and Mouse Inflammation Panel; Biolegend) were performed to monitor cytokine/chemokine expression. Briefly, popliteal LNs were collected and carefully disrupted in […] ice-cold phosphate buffer, minimizing cell rupture. The suspension was centrifuged at 1,500 rpm for 5 min, and the […]

[7] = concentration in saturated 12.5% CAPTISOL solution; format: physicochemical; conditions: filtered 12.5 w/v% CAPTISOL in water, st. dev. between technical replicates (n=2)
Description: as §1, §2
Sample preparation in CAPTISOL® […]
as §3, with “lower solubility (2) compounds respectively in a 12.5 w/v% CAPTISOL® solution in water. In a precisely tared vial, required amounts of compounds and CAPTISOL® were weighed out as solids. Based” for “Based”
as §4
coli host derived from the BL21 strain. […]

[8] = test system: immune cell recruitment to the popliteal lymph node; assay: TNF-α induced inflammation model, flow cytometry of pLN; format: in vivo, mouse; conditions: mice, flow cytometry 5 h post-injection of rmTNF-α, vs control group
[9] = test system: CBP-BRD; conditions: TR-FRET; ref Crawford et al., 2016; read-out: Affinity to CBP-BRD, IC50 (Published); cited from earlier work
[10] = target: CBP-BRD; conditions: ITC; ref Picaud et al., 2015; Popp et al., 2016; read-out: Affinity to CBP-BRD, Kd; cited from earlier work

Q: With `CO[C@H]1CC[C@H](n2c([C@@H]3CCCC(=O)N3c3ccc(F)c(F)c3)nc3cc(-c4c(C)noc4C)ccc32)CC1` [CCS1477] as the compound, how does the Kd [1] read?
A: 1.7 nM

Q: What about the “Sel. over BRD4(1)-BRD” value ([2]; ref Pegg et al., 2017, Brooks et al.) of the same compound?
A: 130 fold

Q: What does the source list for `CC(=O)N1CCc2c(c(Nc3ccc(-c4cnn(C)c4)cc3F)nn2[C@H]2CCOC2)C1` [GNE-272, reference compound]?
A: Kin. Sol. [3]: 75.1 ± 1.0 µM; TNF-α-induced expression of il1β, il8, mcp-1 and tnf-α (mRNA) [4]: inhibited expression to a greater extent than the less potent but more soluble inhibitor 5; TNF-α-induced IL-8 protein secretion [5]: significantly reducing its TNF-α-induced secretion; GI30 [6]: > 10 µM; Conc. in 12.5% Captisol sol. [7]: 715 ± 12 µM; recruitment of lymphocytes (T and B cells), dendritic cells and neutrophils to the pLN [8]: significantly inhibited the recruitment of lymphocytes; IC50 [9]: 20 nM

Q: Which Kd [10] does the source give for `CCC(=O)N1CCOc2c(cc(-c3ccc(OC)c(OC)c3)cc2OC[C@H]2CCCN(C)C2)C1` [I-CBP112] here?
A: 151 nM

Q: And the “Sel. over BRD4(1)-BRD” value ([2]; ref Picaud et al., 2015, Popp et al., 2016)?
A: 37 fold
